Laboratory results: ChEMBL document CHEMBL2440076, “New triarylpyrazoles as broad-spectrum anticancer agents: design, synthesis, and biological evaluation” (Eur J Med Chem, 2013)

Columns and labels:
Type in all cases: functional
DU-145 [1] = test: Growth inhibition of human DU145 cells assessed as cell growth at 5X10'-6 M after 48 hrs by sulforhodamine B assay; conditions: DU-145, 48 h, read-out: Activity
NCI-H460 [2] = test: Growth inhibition of human NCI-H460 cells assessed as cell growth at 5X10'-8 M after 48 hrs by sulforhodamine B assay; conditions: NCI-H460, 48 h, read-out: Activity
SF-295 = test: Growth inhibition of human SF295 cells assessed as cell growth at 3X10'-7 M after 48 hrs by sulforhodamine B assay; conditions: SF-295, 48 h, read-out: Activity
BT-549 = test: Growth inhibition of human BT549 cells assessed as cell growth at 3X10'-8 M after 48 hrs by sulforhodamine B assay; conditions: BT-549, 48 h, read-out: Activity
DU-145 [3] = test: Growth inhibition of human DU145 cells assessed as cell growth at 3X10'-8 M after 48 hrs by sulforhodamine B assay; conditions: DU-145, 48 h, read-out: Activity
786-0 = test: Growth inhibition of human 786-0 cells assessed as cell growth at 3X10'-8 M after 48 hrs by sulforhodamine B assay; conditions: 786-0, 48 h, read-out: Activity
DU-145 [4] = test: Growth inhibition of human DU145 cells assessed as cell growth at 3X10'-5 M after 48 hrs by sulforhodamine B assay; conditions: DU-145, 48 h, read-out: Activity
CCRF-CEM = test: Growth inhibition of human CCRF-CEM cells assessed as cell growth at 3X10'-9 M after 48 hrs by sulforhodamine B assay; conditions: read-out: Activity
OVCAR-3 [5] = test: Growth inhibition of human OVCAR3 cells assessed as cell growth at 3X10'-8 M after 48 hrs by sulforhodamine B assay; conditions: OVCAR-3, 48 h, read-out: Activity
SK-MEL-28 [6] = test: Growth inhibition of human SK-MEL-28 cells assessed as cell growth at 3X10'-8 M after 48 hrs by sulforhodamine B assay; conditions: SK-MEL-28, 48 h, read-out: Activity
SF-539 = test: Growth inhibition of human SF539 cells assessed as cell growth at 3X10'-8 M after 48 hrs by sulforhodamine B assay; conditions: SF-539, 48 h, read-out: Activity
NCI-H23 = test: Growth inhibition of human NCI-H23 cells assessed as cell growth at 3X10'-8 M after 48 hrs by sulforhodamine B assay; conditions: NCI-H23, 48 h, read-out: Activity
SR [7] = test: Growth inhibition of human SR cells assessed as cell growth at 3X10'-8 M after 48 hrs by sulforhodamine B assay; conditions: read-out: Activity
MDA-MB-468 = test: Growth inhibition of human MDA-MB-468 cells assessed as cell growth at 3X10'-9 M after 48 hrs by sulforhodamine B assay; conditions: MDA-MB-468, 48 h, read-out: Activity
OVCAR-5 = test: Growth inhibition of human OVCAR5 cells assessed as cell growth at 3X10'-5 M after 48 hrs by sulforhodamine B assay; conditions: OVCAR-5, 48 h, read-out: Activity
CAKI-1 [8] = test: Growth inhibition of human CAKI-1 cells assessed as cell growth at 3X10'-9 M after 48 hrs by sulforhodamine B assay; conditions: CAKI-1, 48 h, read-out: Activity
OVCAR-3 [9] = test: Growth inhibition of human OVCAR3 cells assessed as cell growth at 3X10'-5 M after 48 hrs by sulforhodamine B assay; conditions: OVCAR-3, 48 h, read-out: Activity
IGROV-1 = test: Growth inhibition of human IGROV1 cells assessed as cell growth at 3X10'-5 M after 48 hrs by sulforhodamine B assay; conditions: IGROV-1, 48 h, read-out: Activity
M14 = test: Growth inhibition of human M14 cells assessed as cell growth at 3X10'-5 M after 48 hrs by sulforhodamine B assay; conditions: M14, 48 h, read-out: Activity
A549 [10] = test: Growth inhibition of human A549/ATCC cells assessed as cell growth at 3X10'-5 M after 48 hrs by sulforhodamine B assay; conditions: A549, 48 h, read-out: Activity
PC-3 = test: Growth inhibition of human PC3 cells assessed as cell growth at 3X10'-6 M after 48 hrs by sulforhodamine B assay; conditions: PC-3, 48 h, read-out: Activity
SF-268 = test: Growth inhibition of human SF268 cells assessed as cell growth at 3X10'-9 M after 48 hrs by sulforhodamine B assay; conditions: SF-268, 48 h, read-out: Activity
NCI-H460 [11] = test: Growth inhibition of human NCI-H460 cells assessed as cell growth at 3X10'-9 M after 48 hrs by sulforhodamine B assay; conditions: NCI-H460, 48 h, read-out: Activity
CAKI-1 [12] = test: Growth inhibition of human CAKI-1 cells assessed as cell growth at 3X10'-6 M after 48 hrs by sulforhodamine B assay; conditions: CAKI-1, 48 h, read-out: Activity
SK-OV-3 = test: Growth inhibition of human SKOV3 cells assessed as cell growth at 3X10'-6 M after 48 hrs by sulforhodamine B assay; conditions: SK-OV-3, 48 h, read-out: Activity
SK-MEL-28 [13] = test: Growth inhibition of human SK-MEL-28 cells assessed as cell growth at 3X10'-6 M after 48 hrs by sulforhodamine B assay; conditions: SK-MEL-28, 48 h, read-out: Activity
MDA-MB-435 = test: Growth inhibition of human MDA-MB-435 cells assessed as cell growth at 3X10'-6 M after 48 hrs by sulforhodamine B assay; conditions: MDA-MB-435, 48 h, read-out: Activity
NCI-H522 = test: Growth inhibition of human NCI-H522 cells assessed as cell growth at 3X10'-6 M after 48 hrs by sulforhodamine B assay; conditions: NCI-H522, 48 h, read-out: Activity
NCI-H226 = test: Growth inhibition of human NCI-H226 cells assessed as cell growth at 3X10'-6 M after 48 hrs by sulforhodamine B assay; conditions: NCI-H226, 48 h, read-out: Activity
A549 [14] = test: Growth inhibition of human A549/ATCC cells assessed as cell growth at 3X10'-6 M after 48 hrs by sulforhodamine B assay; conditions: A549, 48 h, read-out: Activity
SR [15] = test: Growth inhibition of human SR cells assessed as cell growth at 3X10'-6 M after 48 hrs by sulforhodamine B assay; conditions: read-out: Activity
MOLT-4 = test: Growth inhibition of human MOLT4 cells assessed as cell growth at 3X10'-6 M after 48 hrs by sulforhodamine B assay; conditions: MOLT-4, 48 h, read-out: Activity
[16] = Growth inhibition of human Hs 578T cells assessed as cell growth at 3X10'-7 M after 48 hrs by sulforhodamine B assay; conditions: read-out: Activity
MDA-MB-231 = test: Growth inhibition of human MDA-MB-231 cells assessed as cell growth at 3X10'-7 M after 48 hrs by sulforhodamine B assay; conditions: MDA-MB-231, 48 h, read-out: Activity
SN12C = test: Growth inhibition of human SN12C cells assessed as cell growth at 3X10'-7 M after 48 hrs by sulforhodamine B assay; conditions: read-out: Activity

COc1cc(-c2nn(-c3cccc(NC(=O)Nc4ccc(Cl)c(Cl)c4)c3)cc2-c2ccncc2)ccc1Cl
growth at 5 µM (DU-145 [1]): 7%
growth at 0.05 µM (NCI-H460 [2]): 102%

COc1cc(-c2nn(-c3cccc(NC(=O)Nc4cccc(C(F)(F)F)c4)c3)cc2-c2ccncc2)ccc1Cl
growth at 5 µM (DU-145 [1]): 14%
growth at 0.05 µM (NCI-H460 [2]): 102%

COc1cc(-c2nn(-c3cccc(NC(=O)Nc4ccc(Cl)c(C(F)(F)F)c4)c3)cc2-c2ccncc2)ccc1Cl
growth at 0.3 µM (SF-295): 93%
growth at 0.03 µM (BT-549): 113%
growth at 0.03 µM (DU-145 [3]): 105%
growth at 0.03 µM (786-0): 102%
growth at 30 µM (DU-145 [4]): 2%
growth at 0.003 µM (CCRF-CEM): 98%
growth at 0.03 µM (OVCAR-3 [5]): 109%
growth at 0.03 µM (SK-MEL-28 [6]): 95%
growth at 0.03 µM (SF-539): 93%
growth at 0.03 µM (NCI-H23): 101%
growth at 0.03 µM (SR [7]): 107%
growth at 0.003 µM (MDA-MB-468): 101%
growth at 30 µM (OVCAR-5): -43%
growth at 0.003 µM (CAKI-1 [8]): 92%
growth at 30 µM (OVCAR-3 [9]): -46%
growth at 30 µM (IGROV-1): -37%
growth at 30 µM (M14): -66%
growth at 30 µM (A549 [10]): -5%
growth at 3 µM (PC-3): -11%
growth at 0.003 µM (SF-268): 97%
growth at 0.003 µM (NCI-H460 [11]): 103%
growth at 3 µM (CAKI-1 [12]): 4%
growth at 3 µM (SK-OV-3): 21%
growth at 3 µM (SK-MEL-28 [13]): 16%
growth at 3 µM (MDA-MB-435): -36%
growth at 3 µM (NCI-H522): 8%
growth at 3 µM (NCI-H226): 38%
growth at 3 µM (A549 [14]): 11%
growth at 3 µM (SR [15]): -13%
growth at 3 µM (MOLT-4): 9%
growth at 0.3 µM [16]: 89%
growth at 0.3 µM (MDA-MB-231): 85%
growth at 0.3 µM (SN12C): 91%

COc1cc(-c2nn(-c3cccc(NC(=O)Nc4cc(C(F)(F)F)cc(C(F)(F)F)c4)c3)cc2-c2ccncc2)ccc1Cl
growth at 0.05 µM (NCI-H460 [2]): 100%

COc1cc(-c2nn(-c3cccc(NC(=O)c4cccc(C(F)(F)F)c4)c3)cc2-c2ccncc2)ccc1Cl
growth at 5 µM (DU-145 [1]): 15%
growth at 0.05 µM (NCI-H460 [2]): 100%
